{"source": "patent US20180106782A1", "about": "“HIGH THROUGHPUT CARDIOTOXICITY SCREENING PLATFORM” (The Board of Trustees of the Leland Stanford Junior …, priority 2016, published 2018)", "test_system": "μpatterned hiPSC-CMs", "experiment": "movement of LifeAct-labeled myofibrils in beating μpatterned hiPSC-CMs (cross-correlation, Ncorr)", "type": "cell-based, human", "settings": "for aδ (temporal asynchronicity) / d (displacement) / VR (peak velocity of relaxation) / VC (peak velocity of contraction) / aθ (spatial asynchronicity): LifeAct, single cell", "description": "We fluorescently labeled actin with LifeAct in live hiPSC-CMs to image myofibrils and sarcomeres as described before. (Ribeiro 2015a) For this effect, we incubated hiPSC-CMs with the adenovirus rAV CAG-LifeAct-TagRFP (Ibidi; 1×10^5 IU/mL in cell-culture medium) overnight at 37° C. in a humid 5% CO2 atmosphere. We then washed cells once with PBS at 37° C. and added new medium. We observed actin labeled in sarcomeres after 2 days of adding the adenovirus to the culture medium. To induce contractile changes in hiPSC-CMs, we added drugs known to affect CM contractile machinery to the culture medium. We analyzed the mechanical output of cells after adding drugs. […] We exposed single cells to concentrations of 0.1 μM and then 1 μM of isoproterenol (Sigma, Saint Louis, Mo.) to test how the contractile activity of each cell varied after adding different amounts of isoproterenol to the medium. Omecamtiv mecarbil (Adooq Bioscience, Irvine, Calif.) was also added to the cell culture medium at 10 nM or 0.1 μM to detect different variations in the contractile response of hiPSC-CMs after adding one of these concentrations. We acquired videos of single beating hiPSC-CMs imaged with differential interference contrast microscopy at frame rates higher than 30 fps for a time between 4 and 10 s. We used MATLAB (R2014b version, Mathworks) to convert pixels of each frame to microns. Zeiss files (.czi) contained information on the pixel dimensions and were imported into MATLAB using the Bioformats package. ([…] 2010) We also confirmed the software calibration with calibration slides (Electron Microscopy Sciences). For each video of a beating single cell, we selected a region of interest (ROI) around the borders of the cell and analyzed average displacements within this ROI (FIG. 1B). For this purpose, we selected a baseline frame, within all the frames of the video, which represented the relaxed state of the cell and calculated average displacement within the ROI for the remaining frames relative to the baseline frame. As noted bellow, this procedure was automated. We then calculated displacements from microscopy videos with cross-correlation approaches: digital image correlation (DIC) and particle image velocimetry (PIV) approaches. […] Cross-correlation is done between sub-blocks of the image and the highest correlation indicates the maximum likelihood that blocks match. We tested the following cross-correlation algorithms: PIVIab, ImageJ PIV (Tseng 2012) and Ncorr. PIVIab and Ncorr were written in MATLAB, while ImageJ PIV is a plugin for ImageJ (NIH). Ncorr generally performs better, but uses more computational time. (Blaber 2015) We measured two parameters of asynchronicity of contractile movement within the ROI: spatial asynchronicity (aθ) of contractile movement and temporal asynchronicity (aδ) of contractile movement. Spatial synchronicity occurs when the different regions of the cell move along the same directions and temporal synchronicity occurs when all the regions of the cell move at the same time. To calculate aθ, we first computed the direction of movement (θ) for every movement vector of different regions i inside the ROI (FIG. 1B) at each frame as defined by The second approach performed better for analyzing sarcomere lengths in videos of LifeAct labeled beating cells. This approach was applied to different frames in a video to determine how the different properties measure with traction force microscopy or from cell movement related to sarcomere size, movement and orientation during the contractile cycle. Most of the tested approaches relied on successful skeletonization of each frame, which may not be perfect due to noise or inconsistent illumination. To quantitatively compare different skeletons from different frames in a video, we generated a master skeleton based on the skeletons generated from all frames. […]"}
{"smiles": "CC(C)NCC(O)c1ccc(O)c(O)c1", "note": "(stereo not drawn) [isoproterenol]", "values": [{"measurement": "aδ (temporal asynchronicity)", "setting": "ISO 0.1 (μM per FIG. 4), no ISO: 0.1", "result": 0.31, "unit": "s"}, {"measurement": "d (displacement)", "setting": "ISO 0.1 (μM per FIG. 4), no ISO: 1.22", "result": 1.43, "unit": "μm"}, {"measurement": "VR (peak velocity of relaxation)", "setting": "ISO 0.1 (μM per FIG. 4), no ISO: 2.54", "result": 3.45, "unit": "μm/s"}, {"measurement": "VC (peak velocity of contraction)", "setting": "ISO 0.1 (μM per FIG. 4), no ISO: 2.63", "result": 4.78, "unit": "μm/s"}, {"measurement": "aθ (spatial asynchronicity)", "setting": "ISO 0.1 (μM per FIG. 4), no ISO: 55.4", "result": 19.5, "unit": "°"}, {"measurement": "aδ (temporal asynchronicity)", "setting": "ISO 1 (μM per FIG. 4), no ISO: 0.1", "result": 0.28, "unit": "s"}, {"measurement": "d (displacement)", "setting": "ISO 1 (μM per FIG. 4), no ISO: 1.22", "result": 0.71, "unit": "μm"}, {"measurement": "VR (peak velocity of relaxation)", "setting": "ISO 1 (μM per FIG. 4), no ISO: 2.54", "result": 2.05, "unit": "μm/s"}, {"measurement": "VC (peak velocity of contraction)", "setting": "ISO 1 (μM per FIG. 4), no ISO: 2.63", "result": 2.02, "unit": "μm/s"}, {"measurement": "aθ (spatial asynchronicity)", "setting": "ISO 1 (μM per FIG. 4), no ISO: 55.4", "result": 20.8, "unit": "°"}]}
{"smiles": "COC(=O)N1CCN(Cc2cccc(NC(=O)Nc3ccc(C)nc3)c2F)CC1", "note": "[omecamtiv mecarbil]", "values": [{"measurement": "acute changes in sarcomere organization and movement", "setting": "0.1 μM omecamtiv mecarbil, acute, single cell (FIG. 6B)", "result": "oscillatory contractions of sarcomeres and overlap between sarcomeres"}, {"measurement": "chronic effects on the organization of myofibrils", "setting": "0.1 μM omecamtiv mecarbil, chronic, 2 minutes after adding (FIG. 6C)", "result": "myofibril damaging"}, {"measurement": "acute values of dmax and br from myofibril movement", "setting": "0.1 μM omecamtiv mecarbil, single cell (FIG. 6F)", "result": "slightly increased"}, {"measurement": "acute VC and VR from myofibril movement", "setting": "0.1 μM omecamtiv mecarbil, single cell (FIG. 6G)", "result": "no considerable acute variations"}, {"measurement": "aδ (temporal asynchronicity)", "setting": "OM 0.1 μM (FIG. 6), row 'acute', no OM: 0.05", "result": 0.89, "unit": "s"}, {"measurement": "d (displacement)", "setting": "OM 0.1 μM (FIG. 6), row 'acute', no OM: 1.03", "result": 0.25, "unit": "μm"}, {"measurement": "VR (peak velocity of relaxation)", "setting": "OM 0.1 μM (FIG. 6), row 'acute', no OM: 2.2", "result": 0.51, "unit": "μm/s"}, {"measurement": "VC (peak velocity of contraction)", "setting": "OM 0.1 μM (FIG. 6), row 'acute', no OM: 2.25", "result": 0.54, "unit": "μm/s"}, {"measurement": "aθ (spatial asynchronicity)", "setting": "OM 0.1 μM (FIG. 6), row 'acute', no OM: 36.3", "result": 40.9, "unit": "°"}, {"measurement": "aδ (temporal asynchronicity)", "setting": "OM 0.1 μM (FIG. 6), row 'chronic', no OM: 0.05", "result": 0.88, "unit": "s"}, {"measurement": "d (displacement)", "setting": "OM 0.1 μM (FIG. 6), row 'chronic', no OM: 1.03", "result": 0.93, "unit": "μm"}, {"measurement": "VR (peak velocity of relaxation)", "setting": "OM 0.1 μM (FIG. 6), row 'chronic', no OM: 2.2", "result": 1.63, "unit": "μm/s"}, {"measurement": "VC (peak velocity of contraction)", "setting": "OM 0.1 μM (FIG. 6), row 'chronic', no OM: 2.25", "result": 2.2, "unit": "μm/s"}, {"measurement": "aθ (spatial asynchronicity)", "setting": "OM 0.1 μM (FIG. 6), row 'chronic', no OM: 36.3", "result": 17.1, "unit": "°"}]}
